# Results from article PMC4330465 (Journal of Computer-Aided Molecular Design, 2014).
# Counter-ions that a name gives are not always drawn.
# Target: T1, Recombinant Homo sapiens AChE (Homo sapiens, UniProt P22303)
# T1 construct: made in house
# Assay: biochemical
# Format: biochemical
# Details: test sets Set1 and Set2 (Table S15), synthesized and biologically evaluated here
# Protocol: The training set of 18 compounds was experimentally evaluated for their ability to inhibit the enzymatic activity of AChE (Table 1 and Online Resource 1 for experimental details).
# Reco mbinant Homo sapiens AChE was expressed according to previously described methods [ 6,7]. The enzymatic activit y wa s measured usi ng t he Ell ma n assa y [ 8] adapted to a 96-well for mat. The final assay volume was 200 µ L a nd all measurements were performed in 0.2 mM 5,5’-D ithiobis(2-nitrobenzoic acid) and 1 mM acethylthioc holine iodide in 0.1 M phosphate buffer pH 8.0. All measurements were perfor med in triplicates and the data was fitted to a (log)i nhibit or vs. response four parameters equation using GraphPad Prism (5.0). T he obtained IC50-values were recalculated to pIC50 according to pIC50=-log(IC50) in molar (M) concentration.
# T1 sequence (P22303 32-614): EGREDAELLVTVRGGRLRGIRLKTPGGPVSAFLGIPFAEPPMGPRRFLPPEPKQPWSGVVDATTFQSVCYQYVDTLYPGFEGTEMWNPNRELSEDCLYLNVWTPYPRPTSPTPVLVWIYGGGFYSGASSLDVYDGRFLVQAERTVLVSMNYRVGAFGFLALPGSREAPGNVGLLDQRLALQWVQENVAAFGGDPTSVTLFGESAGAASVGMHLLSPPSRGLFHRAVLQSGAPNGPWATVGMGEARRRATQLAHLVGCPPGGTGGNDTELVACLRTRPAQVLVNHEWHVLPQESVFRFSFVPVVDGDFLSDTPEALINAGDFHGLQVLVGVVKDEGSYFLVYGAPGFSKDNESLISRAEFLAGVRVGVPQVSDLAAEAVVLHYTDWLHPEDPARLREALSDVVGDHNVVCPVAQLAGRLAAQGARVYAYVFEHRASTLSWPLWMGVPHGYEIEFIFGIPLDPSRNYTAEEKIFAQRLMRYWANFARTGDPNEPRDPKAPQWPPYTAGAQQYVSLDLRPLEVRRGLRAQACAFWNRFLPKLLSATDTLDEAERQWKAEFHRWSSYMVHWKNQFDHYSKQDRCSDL
row,Structure (SMILES),IC50 [µM]
1,Cc1ccc(C(=O)NCCC[n+]2ccccc2)cc1[N+](=O)[O-] [compound 27],4.9
2,Cc1ccc(C(=O)NCC[n+]2ccccc2)cc1[N+](=O)[O-] [compound 28],10
3,Cc1ccc(C(=O)NCCCN(C)C)cc1[N+](=O)[O-] [compound 29],19
4,O=[N+]([O-])c1ccccc1S(=O)(=O)NCC[n+]1ccsc1 [compound 30],12
5,O=C(NCC[n+]1ccsc1)c1cc2cc([N+](=O)[O-])ccc2s1 [compound 31],2.6
6,O=C(COc1ccc(Cl)cc1)Nc1ccc(CN2CCCCC2)cc1 [compound 37],0.6
7,Cc1cc(C)c(OCC(=O)Nc2ccc(CN3CCCCC3)cc2)c(Cl)c1 [compound 38],1.3
8,O=C(COc1ccccc1)Nc1ccc(CN2CCCCC2)cc1 [compound 39],1.3
9,O=C(COc1ccccc1Cl)Nc1ccc(CN2CCCCC2)cc1 [compound 40],0.6
10,CCN(CC)Cc1ccc(NC(=O)COc2cc(C)ccc2C)cc1 [compound 41],8.1
11,O=C(CCc1ccc(Cl)cc1Cl)Nc1ccc(CN2CCCCC2)cc1 [compound 42],0.7

# Same assay, conditions: training set; triplicates; pH 8.0
row,Structure (SMILES),IC50 [µM]
1,CCN(CC)CCNS(=O)(=O)Cc1ccc(Cl)cc1 [compound 1],13
2,O=S(=O)(Cc1ccc(Cl)cc1)NCCCN1CCCCC1 [compound 2],445
3,O=C(Cc1ccc(Cl)cc1)NCCCN1CCOCC1 [compound 3],> 1000
4,Cc1ccc(S(=O)(=O)NCCN(C)C)cc1[N+](=O)[O-] [compound 4],69.5
5,Cc1ccc(S(=O)(=O)NCCCN2CCCCC2)cc1[N+](=O)[O-] [compound 5],101
6,CCN(CC)CCCNC(=O)c1ccc(C)c([N+](=O)[O-])c1 [compound 6],12.8
7,COc1ccc(N2Cc3ccccc3C2=O)cc1S(=O)(=O)NCCN1CCOCC1 [compound 7],4250
8,COc1ccc(N2Cc3ccccc3C2=O)cc1S(=O)(=O)NCCCN(C)C [compound 8],12
9,"CN(C)CCCNC(=O)c1sc2ccccc2c1Cl [compound 9, 3-Chloro-benzo[b]thiophene-2-N-(3-dimethylamino-propyl)-carboxamide hydrochlor ide]",67.7
10,"O=C(Cc1ccc(C(F)(F)F)cc1)NCCN1CCCCC1 [compound 10, N-[2-(Piperidin-1-yl)-ethyl] -2-(4-trifluoromethyl-phenyl) -acetamide]",323
11,"O=C(NCCN1CCOCC1)c1ccc(-c2ccc(Cl)cc2)o1 [compound 11, 5-(4-Chlorophenyl)-N-(2-morpholinoethyl)furan-2-carboxamide]",2430
12,"CCN(CC)CCCNC(=O)c1ccc(-c2ccc(Cl)cc2)o1 [compound 12, 5-(4-Chloro-phenyl)-furan-2-N-[3-(diethylamino)-propyl]-carboxamide hydrochloride]",78
13,"O=C(Cc1ccc(Cl)cc1)NCC[n+]1ccccc1 [compound 13, 1-(2-[2-(4 -Chloro-phenyl)-acetylamino]-ethyl)-pyridinium bromide]",25
14,"O=C(NCCC[n+]1ccccc1)c1sc2ccccc2c1Cl [compound 14, 1-(3-[(3-Chloro-benzo[b]thiophen-2-carbonyl)-amino] -propyl)-pyridinium chloride]",6.6
15,O=S(=O)(Cc1ccc(C(F)(F)F)cc1)NCCC[n+]1ccccc1 [compound 15],22.2
16,O=C(NCCN1CCNCC1)c1sc2ccccc2c1Cl [compound 16],109
17,O=S(=O)(Cc1ccc(C(F)(F)F)cc1)NCCCN1CCNCC1 [compound 17],4200
18,O=C(NCCCN1CCNCC1)c1ccc(-c2ccc(Cl)cc2)o1 [compound 18],136

# Target: T1, Recombinant Homo sapiens AChE
# Assay: not given
# Details: test set Set3 (Table S15); cited from earlier work
row,Structure (SMILES),IC50 [µM]
1,CCN(CC)CCNS(=O)(=O)c1cccc(OC)c1 [compound 60],10
